Results on 20 molecules are retold here after ChEMBL document CHEMBL3862031, “Design, synthesis and activity of novel sorafenib analogues bearing chalcone unit” (Bioorg Med Chem Lett, 2016).

Structures are written as SMILES.

Assay [1] in a line: (§1) Cytotoxicity against human A549 cells after 72 hrs by MTT assay. The format is functional, cell-based. The following applies: A549, 72 h. (In general: Formazan colour is commonly taken as a measure of viable cells.)
Another assay has as its system A549. The assay is described as §1. In kind it is functional, cell-based.
A short description of assay [2]: (§2) Cytotoxicity against human HepG2 cells after 72 hrs by MTT assay. The following applies: HepG2, 72 h. The format is functional, cell-based.
Assay [3] concerns HepG2. The description is as §2. In kind it is functional, cell-based.
Assay [4] is described as follows: (§3) Cytotoxicity against human MCF7 cells after 72 hrs by MTT assay. The format is functional, cell-based. As to conditions: MCF7, 72 h.
Assay [5] concerns MCF7. The description is as §3. The format is functional, cell-based.
A short description of assay [6]: (§4) Cytotoxicity against human PC3 cells after 72 hrs by MTT assay. In kind it is functional, cell-based. The following applies: PC-3, 72 h.
For assay [7], the system named is PC-3. The description is as §4. In kind it is functional, cell-based.
In assay [8] the target is Vascular endothelial growth factor receptor 2 (Homo sapiens, UniProt P35968). As to the kind of experiment: Inhibition of VEGFR2 (unknown origin) using FAM-labeled peptide as substrate preincubated for 10 mins followed by substrate addition by mobility shift assay.
Assay [9] deals with Serine/threonine-protein kinase B-raf (Homo sapiens, UniProt P15056). As to the kind of experiment: Inhibition of BRAF (unknown origin) using FAM-labeled peptide as substrate after 1 hr by Lanthascreen assay. On the technique in general: Time-resolved FRET reads energy transfer from a long-lived donor to a nearby acceptor.
Assay [10] concerns PC-3. As to the kind of experiment: Potency index, ratio of sorafenib IC50 to compound IC50 for human PC3 cells. In kind it is functional.
For assay [11], the system named is MCF7. Nature of the assay: Potency index, ratio of sorafenib IC50 to compound IC50 for human MCF7 cells. The format is functional.
For assay [12], the system named is HepG2. Nature of the assay: Potency index, ratio of sorafenib IC50 to compound IC50 for human HepG2 cells. The format is functional.

Serine/threonine-protein kinase B-raf, sequence (P15056 whole entry): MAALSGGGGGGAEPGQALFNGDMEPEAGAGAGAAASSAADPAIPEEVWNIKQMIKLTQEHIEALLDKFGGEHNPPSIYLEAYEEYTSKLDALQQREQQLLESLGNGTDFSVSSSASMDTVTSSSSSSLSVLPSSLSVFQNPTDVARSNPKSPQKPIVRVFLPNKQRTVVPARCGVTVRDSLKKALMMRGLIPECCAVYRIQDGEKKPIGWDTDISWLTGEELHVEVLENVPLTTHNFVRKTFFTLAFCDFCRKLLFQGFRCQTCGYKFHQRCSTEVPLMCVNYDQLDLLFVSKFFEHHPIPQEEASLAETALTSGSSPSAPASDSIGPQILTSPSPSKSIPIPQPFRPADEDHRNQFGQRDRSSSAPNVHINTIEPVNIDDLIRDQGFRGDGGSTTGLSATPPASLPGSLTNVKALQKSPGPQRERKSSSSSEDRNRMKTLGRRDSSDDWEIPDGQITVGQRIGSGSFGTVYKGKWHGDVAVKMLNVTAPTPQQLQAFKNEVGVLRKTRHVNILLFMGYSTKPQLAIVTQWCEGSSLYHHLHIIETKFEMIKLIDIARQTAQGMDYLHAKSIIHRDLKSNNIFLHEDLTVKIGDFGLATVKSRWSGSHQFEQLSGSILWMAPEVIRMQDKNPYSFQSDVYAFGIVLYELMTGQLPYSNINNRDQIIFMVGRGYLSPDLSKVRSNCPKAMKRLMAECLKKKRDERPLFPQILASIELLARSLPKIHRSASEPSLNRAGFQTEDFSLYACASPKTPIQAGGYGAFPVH
Vascular endothelial growth factor receptor 2, sequence (P35968 whole entry): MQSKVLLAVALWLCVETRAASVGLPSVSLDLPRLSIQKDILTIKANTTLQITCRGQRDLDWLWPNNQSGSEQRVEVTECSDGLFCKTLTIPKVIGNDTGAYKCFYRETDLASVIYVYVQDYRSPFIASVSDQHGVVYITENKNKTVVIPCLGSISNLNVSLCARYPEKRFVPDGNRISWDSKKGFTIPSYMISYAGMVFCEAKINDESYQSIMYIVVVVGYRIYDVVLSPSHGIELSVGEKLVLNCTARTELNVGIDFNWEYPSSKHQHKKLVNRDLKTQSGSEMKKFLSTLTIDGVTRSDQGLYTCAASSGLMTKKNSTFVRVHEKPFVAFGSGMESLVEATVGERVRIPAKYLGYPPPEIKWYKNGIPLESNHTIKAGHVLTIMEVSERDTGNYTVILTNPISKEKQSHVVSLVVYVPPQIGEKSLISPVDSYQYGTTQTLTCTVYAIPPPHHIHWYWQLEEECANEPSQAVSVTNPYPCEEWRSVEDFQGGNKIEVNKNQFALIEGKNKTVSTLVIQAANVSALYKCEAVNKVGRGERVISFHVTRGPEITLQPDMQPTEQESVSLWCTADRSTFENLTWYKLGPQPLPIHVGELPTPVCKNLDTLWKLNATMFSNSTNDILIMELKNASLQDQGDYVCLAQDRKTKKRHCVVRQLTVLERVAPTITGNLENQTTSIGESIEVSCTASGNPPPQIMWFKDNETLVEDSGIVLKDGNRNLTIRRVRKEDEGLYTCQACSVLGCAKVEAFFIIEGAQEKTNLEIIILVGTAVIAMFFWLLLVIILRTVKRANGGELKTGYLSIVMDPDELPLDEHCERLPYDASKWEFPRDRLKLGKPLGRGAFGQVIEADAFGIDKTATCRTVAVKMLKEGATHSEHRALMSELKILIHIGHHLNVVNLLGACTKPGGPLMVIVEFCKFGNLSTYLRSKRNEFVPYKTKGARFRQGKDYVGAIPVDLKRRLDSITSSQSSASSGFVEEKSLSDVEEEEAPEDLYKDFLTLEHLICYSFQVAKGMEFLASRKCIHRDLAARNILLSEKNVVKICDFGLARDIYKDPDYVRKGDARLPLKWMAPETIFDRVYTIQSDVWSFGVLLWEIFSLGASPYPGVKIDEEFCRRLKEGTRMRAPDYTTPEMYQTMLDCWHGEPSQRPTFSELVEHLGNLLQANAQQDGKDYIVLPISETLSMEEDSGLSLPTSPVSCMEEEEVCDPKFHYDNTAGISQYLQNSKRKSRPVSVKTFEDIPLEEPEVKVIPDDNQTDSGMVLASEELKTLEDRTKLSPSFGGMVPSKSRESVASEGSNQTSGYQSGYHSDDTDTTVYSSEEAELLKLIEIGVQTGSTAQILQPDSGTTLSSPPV

As a reminder, the IC50 is the point on the concentration scale where inhibition reaches its midpoint. As for `CNC(=O)c1cc(Oc2ccc(C(=O)/C=C/c3cccc(Br)c3)cc2)ccn1`, the IC50 in assay [1] came out at 9.94 µM; in assay [2], 2.87 µM; in [4], 10.4 µM; in [6], 3.4 µM; in assay [8], 0.72 µM; in assay [9], 2.9 µM. For the same molecule, the Activity result with A549, in the assay with HepG2 [3], in the assay with MCF7 [5] and in the assay with PC-3 [7] was “Dose-dependent effect” in each case.
On to `CNC(=O)c1cc(Oc2ccc(C(=O)/C=C/c3ccc(F)cc3Cl)cc2)ccn1`, for which the 50% inhibitory concentration (IC50) in assay [1] was 21.1 µM; in assay [2] it was 7.32 µM; in assay [4] it was 21.1 µM; in assay [6], 4.76 µM.
Regarding `CNC(=O)c1cc(Oc2ccc(/C=C/C(=O)c3ccc(Cl)cc3)cc2)ccn1`, the IC50 in [2] worked out at 36.6 µM; in [4], 17.5 µM.
Take `CNC(=O)c1cc(Oc2ccc(C(=O)/C=C/c3ccc(Br)cc3)cc2)ccn1`: the IC50 was over 50 µM in assay [1], over 50 µM in [2], over 50 µM in assay [4] and 18.5 µM in assay [6].
Turning to `CNC(=O)c1cc(Oc2ccc(C(=O)/C=C/c3ccccc3)cc2)ccn1`, the 50% inhibitory concentration (IC50) in [1] amounted to 5.04 µM; in assay [2], 6.64 µM; in assay [4], 5.96 µM; in [6], 3.17 µM; in assay [8], 1.1 µM; in assay [9], 2.4 µM. In addition, the “Ratio IC50” value in the assay with PC-3 [10] amounted to 1.02.
For the molecule `CNC(=O)c1cc(Oc2ccc(C(=O)/C=C/c3ccc(C#N)cc3)cc2)ccn1`, the IC50 in assay [1] was determined as 26.4 µM; in assay [2] it was 5.43 µM; in assay [4] it was 9.52 µM; in assay [6], 3.87 µM.
For the molecule `CNC(=O)c1cc(Oc2ccc(C(=O)/C=C/c3ccc(OC)c(OC)c3OC)cc2)ccn1`, the IC50 in assay [2] was 9.81 µM; in assay [4], 2.91 µM.
Taken in the same sequence, the figures for `CNC(=O)c1cc(Oc2ccc(/C=C/C(=O)c3ccc(C)cc3)cc2)ccn1` were over 50 µM and 24.9 µM.
As to `CNC(=O)c1cc(Oc2ccc(C(=O)/C=C/c3ccc(OC)cc3)cc2)ccn1`, the IC50 in assay [1] and in assay [6] was over 50 µM each time.
`CNC(=O)c1cc(Oc2ccc(C(=O)/C=C/c3ccc(Cl)c(Cl)c3)cc2)ccn1`: the IC50 was 33.7 µM in assay [1], 11.4 µM in [2], 13.2 µM in [4] and 8.26 µM in [6].
Taken in the same sequence, the figures for `CNC(=O)c1cc(Oc2ccc(NC(=O)Nc3ccc(Cl)c(C(F)(F)F)c3)cc2)ccn1` [SORAFENIB] were 2.92 µM, 3.44 µM, 3.18 µM and 3.24 µM.
As to `CNC(=O)c1cc(Oc2ccc(/C=C/C(=O)c3ccc([N+](=O)[O-])cc3)cc2)ccn1`, the IC50 in assay [2] amounted to 41.4 µM; in [4], 54.3 µM.
On to `CNC(=O)c1cc(Oc2ccc(/C=C/C(=O)c3ccc(F)cc3)cc2)ccn1`, for which the IC50 in assay [2] is 12.3 µM; in assay [4], 2.05 µM; in assay [8], over 50 µM; in [9], over 50 µM. In addition, the “Ratio IC50” value in the assay on MCF7 [11] came out at 1.55.
As for `CNC(=O)c1cc(Oc2ccc(C(=O)/C=C/c3cc(OC)c(OC)c(OC)c3)cc2)ccn1`, the half-inhibitory concentration (IC50) in [1] amounted to 9.5 µM; in assay [2], 0.56 µM; in assay [4], 3.88 µM; in assay [6], 3.15 µM; in assay [8], 3.2 µM; in assay [9], 1.8 µM. Moreover, the “Ratio IC50” value in the assay on MCF7 [11] is 1.03 - 6.14; in the assay with HepG2 [12] it was 6.14; in the assay with PC-3 [10], 1.03 - 6.14.
Take `CNC(=O)c1cc(Oc2ccc(C(=O)/C=C/c3ccc(F)cc3)cc2)ccn1`: the IC50 in assay [1] amounted to 18.6 µM; in assay [2], 12.6 µM; in [4], 28.5 µM; in assay [6] it was 6.14 µM.
Consider `CNC(=O)c1cc(Oc2ccc(C(=O)/C=C/c3cccc(Cl)c3Cl)cc2)ccn1`, for which the IC50 in assay [1], in [2] and in assay [6] was over 50 µM throughout.
As for `CNC(=O)c1cc(Oc2ccc(C(=O)/C=C/c3cccc([N+](=O)[O-])c3)cc2)ccn1`, the IC50 in [2] and in assay [4] was over 50 µM throughout.
Consider `CNC(=O)c1cc(Oc2ccc(C(=O)/C=C/c3ccc([N+](=O)[O-])cc3)cc2)ccn1`, for which the half-maximal inhibitory concentration (IC50) was over 50 µM in assay [1] and 11.1 µM in assay [6].
In the case of `CNC(=O)c1cc(Oc2ccc(C(=O)/C=C/c3ccc(Cl)cc3Cl)cc2)ccn1`, the IC50 was found to be 9.46 µM in assay [1], 11.7 µM in [2], 3.99 µM in assay [4] and 9.22 µM in assay [6].
In the same order, the values of `CNC(=O)c1cc(Oc2ccc(/C=C/C(=O)c3ccc(Br)cc3)cc2)ccn1` are 20.1 µM, 22 µM, 7.1 µM and 3.56 µM.
